Reference: patent publication US5491155A, “Substituted thiadiazoles, compositions containing them and their use as antimicrobial and marine antifouling agents” (The Dow Chemical Company, priority 1994, dated 1996)
Values after ≈ are worked out from the molar mass of the structure shown. Where two headings read alike, the source gives them in different places.

Key:
Proteus vulgaris = experiment: MIC in nutrient agar, Proteus vulgaris; type: cell-based, Proteus vulgaris (ATCC 881); conditions: Pv, 48 hours, read-out: Minimum Inhibitory Concentration (MIC)
Protocol: (§1) The minimum inhibitory concentration (MIC) for the compounds listed in Table I is determined for bacteria, using nutrient agar, and 7 yeast and fungi, using malt yeast agar. A one percent solution of the test compound is prepared in a mixture of acetone and water.
(§2) Nutrient agar is prepared at pH 6.8, representing a neutral medium, and at pH 8.2, representing an alkaline medium. The nutrient agars are prepared by adding 23 g of nutrient agar to one-liter of deionized water. In addition, the alkaline medium is prepared by adjusting a 0.04M solution of N-(tris-(hydroxymethyl)methyl)glycine buffered deionized water with concentrated sodium hydroxide to a pH of 8.5.
(§3) The test tubes containing the agar are cooled in a water bath until the temperature of the agar is 48° C. Then, an appropriate amount of the one percent solution of the test compound is added (except in the controls where no compound is added) to the respective test tubes so that the final concentrations are 500, 250, 100, 50, 25, 10, 2.5, 1.0 and zero parts per million of the test compound in the agar, thus having a known concentration of test compound dispersed therein. The contents of the test tubes are then transferred to respective petri plates. After drying for 24 hours, the petri plates containing nutrient agar are inoculated with bacteria and those containing malt yeast agar are inoculated with yeast and fungi.
(§4) The inoculation with bacteria is accomplished by using the following procedure. Twenty-four hour-cultures of each of the bacteria are prepared by incubating the respective bacteria in tubes containing nutrient broth for 24 hours at 30° C. in a shaker. Dilutions of each of the 24 hour-cultures are made so that nine separate suspensions (one for each of the nine test bacteria) are made, each containing 10^8 colony forming units (CFU) per mL of suspension of a particular bacteria. Aliquots of 0.3 mL of each of the bacterial suspensions are used to fill the individual wells of Steer's Replicator. For each microbial suspension, 0.3 mL was used to fill three wells (i.e., three wells of 0.3 mL each) so that for the nine different bacteria, 27 wells are filled. The Steer's Replicator is then used to inoculate both the neutral and alkaline pH nutrient agar petri plates.
(§5) The inoculated petri plates are incubated at 30° C. for 48 hours and then read to determine if the test compound which is incorporated into the agar prevented growth of the respective bacteria.
(§6) Table II lists the bacteria, yeast and fungi used in the MIC test described above along with their respective American Type Culture Collection (ATCC) identification numbers.
(§7) In Tables III and IV, the MIC values of the compounds described in Table I as compared to the MIC of a standard commercial preservative (with 1-(3-chloroalkyl)-3,5,7-triaza-1-azoniaadamantane chloride as the active agent and referred to in Tables III and IV as "STANDARD I") are set forth for the bacteria organisms and yeast/fungi organisms which are listed in Table II.

Pseudomonas aeruginosa = experiment: MIC in nutrient agar, Pseudomonas aeruginosa (Pa); type: cell-based, Pseudomonas aeruginosa (ATCC 10145); conditions: Pa, 48 hours, read-out: Minimum Inhibitory Concentration (MIC)
Protocol: as §1, §2, §3, §4, §5, §6, §7

Candida albicans = experiment: MIC in malt yeast agar, Candida albicans; type: cell-based, Candida albicans (ATCC 10231); conditions: Ca; malt yeast agar; 30° C.; 48 hours for yeast; read-out: Minimum Inhibitory Concentration (MIC)
Protocol: as §1
(§8) Malt yeast agar is prepared by adding 3 g yeast extract and 45 g malt agar per liter of deionized water. The specific agar is dispensed in 30 mL aliquots into 25×200 mm test tubes, capped and autoclaved for 15 minutes at 115° C.
as §3
(§9) The inoculation with the yeast and fungi is accomplished as follows. Cultures of yeast and fungi are incubated for seven days on malt yeast agar at 30° C. These cultures are used to prepare suspensions by the following procedure. A suspension of each organism is prepared by adding 10 mL of sterile saline and 10 microliters of octylphenoxy polyethoxy ethanol to the agar slant of yeast or fungi. The sterile saline/octylphenoxy polyethoxy ethanol solution is then agitated with a sterile swab to suspend the microorganism grown on the slant. Each resulting suspension is diluted into sterile saline (1 part suspension: 9 parts sterile saline). Aliquots of these dilutions are placed in individual wells of Steer's Replicator and petri plates inoculated as previously described. The petri plates are incubated at 30° C. and read after 48 hours for yeast and 72 hours for fungi.
as §6, §7

Trichoderma viride = experiment: MIC in malt yeast agar, Trichoderma viride; type: cell-based, Trichoderma viride (ATCC 8678); conditions: Tv; malt yeast agar; 30° C.; 72 hours for fungi; read-out: Minimum Inhibitory Concentration (MIC)
Protocol: as §1, §8, §3, §9, §6, §7

Aureobasidium pullulan = experiment: MIC in malt yeast agar, Aureobasidium pullulan; type: cell-based, Aureobasidium pullulan (ATCC 16622); conditions: Ap; malt yeast agar; 30° C.; 72 hours for fungi; read-out: Minimum Inhibitory Concentration (MIC)
Protocol: as §1, §8, §3, §9, §6, §7

marine organisms = experiment: Marine antifouling test on coated panels; conditions: scale 10 (completely free of marine organism growth) to 0 (completely covered)
Protocol: Test panels are prepared from clear, rigid polyvinyl chloride film that is 0.381×10^-3 m thick and has one textured surface. The test panels are 0.1524 m by 0.1524 m squares that have 0.00635 m holes punched at corners on 0.127 m centers. A 0.102 square template, with a 0.067 m diameter hole at the center, is attached to the center of the textured surface of the test panels.
A candidate marine antifoulant compound (1.0 g) is stirred into a resinous latex binder (9.0 g). A portion of the compound/binder mixture (1.5 g, is added to the center of the test panel and uniformly spread over the circular area inside the template.
Water is added dropwise as needed to properly spread the compound/binder mixture. The template prevents the compound/binder mixture from spreading beyond the uncovered area. […] The template is then removed. The test panel is then allowed to dry for 8 to 12 hours at room temperature.
Two test panels are prepared for each candidate marine antifoulant compound. Two control test panels are also prepared by only treating with the resinous latex binder. One test panel of each candidate marine […] compound is attached over a white background to the topside of an exposure support apparatus. The second test panel is attached over a black background to the underside of the exposure support apparatus. The exposure support apparatus is placed horizontally 0.0254 m under a marine surface with the white background topside facing up.
After being removed from the exposure support apparatus, each test panel is inspected and rated for marine organism growth on both the treated and untreated areas of the test panel. The marine organisms present on the treated and untreated areas are noted. The presence of algae spores and bacterial slime are noted but not included in rating each test panel. The test panels are rated on a scale from 10 (representing completely free of marine organism growth) to 0 (representing completely covered with marine organism growth).
In addition, test panels were prepared using tributyl tin oxide, a known marine antifouling compound.

SMILES	MIC (Proteus vulgaris; pH 6.8, 30° C.) [µg/mL]	MIC (Proteus vulgaris; pH 8.2, 30° C.) [µg/mL]	MIC (Pseudomonas aeruginosa; pH 6.8, 30° C.) [µg/mL]	MIC (Pseudomonas aeruginosa; pH 8.2, 30° C.) [µg/mL]	MIC (Candida albicans) [µg/mL]	MIC (Trichoderma viride) [µg/mL]	MIC (Aureobasidium pullulan) [µg/mL]	Marine Antifouling Rating (marine organisms; 10 Week Test, Bottom Panel)	Marine Antifouling Rating (marine organisms; 10 Week Test, Top Panel)	Marine Antifouling Rating (marine organisms; 20 Week Test, Bottom Panel)	Marine Antifouling Rating (marine organisms; 20 Week Test, Top Panel)
N#CSc1nsnc1SC#N [Example 2, Bis(thiocyanato)-1,2,5-thiadiazole]	25 (≈ 125 µM)	100 (≈ 499 µM)	50 (≈ 250 µM)	250 (≈ 1250 µM)	< 1	5 (≈ 25 µM)	< 1	9	9	7	2
N#CSCSc1nsnc1SCSC#N [Example 4, Bis(thiomethylthiocyanato)-1,2,5-thiadiazole]	< 10	< 10	< 10	< 10	< 2.5	10 (≈ 34.2 µM)	< 2.5	9	9	5	7
